Results on 14 compounds are retold here after patent US11453697B1, “Cyclic di-nucleotide compounds as sting agonists” (Merck Sharp & Dohme Corp., priority 2015, dated 2022).

The target in one test is full-length HAQ STING (Homo sapiens (Human), UniProt Q86WV6, G230A/H232R/R293Q/R71H). Put plainly: 3H-cGAMP filtration binding assay (HAQ STING). The following applies: competition with tritiated cGAMP, HAQ STING membrane; read-out: EC50 (nM), 3H-cGAMP filtration binding assay for HAQ STING. An outline of the steps: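 Competition binding of compounds against 8 nM [3H]cGAMP working stock on Hi-Five cell membranes overexpressing full-length HAQ STING; compound and membrane preincubated 60 min at RT before ligand addition. Bound radioactivity read by filtration and scintillation counting; percent activity normalized to controls, EC50 from 4-parameter fit.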

In test [1] the test system is IFN-β secretion in THP1 cells. The experiment in a line: IFN-β secretion in THP1 cell culture (5 h). It counts as cell-based, human. The method in brief: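 THP1 cells incubated with compound for 5 h at 37 °C, 5% CO2, and secreted IFN-β in supernatant quantified by AlphaLISA. Percent effect normalised to 30 uM cGAMP positive control and 0.3% DMSO. EC50 from 4-parameter fit.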

The mark [2] stands for this setting: IFN-β secretion in THP1 cell culture, 5 h, compound at 30 μM, percent activation relative to 2′3′-cGAMP.

Read-outs that look alike come from different tables or passages of the source.

Sequence of full-length HAQ STING (Q86WV6 other isoform, or with tags, fused parts or gaps, stated change not applied): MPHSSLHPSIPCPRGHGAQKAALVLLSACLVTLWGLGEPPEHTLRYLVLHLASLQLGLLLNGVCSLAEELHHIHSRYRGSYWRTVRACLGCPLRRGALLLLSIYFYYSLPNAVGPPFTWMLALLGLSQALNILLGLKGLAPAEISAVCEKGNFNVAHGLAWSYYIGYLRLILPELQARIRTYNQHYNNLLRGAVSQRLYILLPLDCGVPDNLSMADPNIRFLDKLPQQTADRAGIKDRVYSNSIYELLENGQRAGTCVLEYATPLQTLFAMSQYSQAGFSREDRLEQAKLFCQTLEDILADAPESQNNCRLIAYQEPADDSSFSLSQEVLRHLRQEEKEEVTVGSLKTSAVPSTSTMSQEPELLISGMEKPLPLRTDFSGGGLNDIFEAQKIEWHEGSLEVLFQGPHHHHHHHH

Regarding `Nc1nc2c(ncn2[C@@H]2O[C@@H]3COP(=O)(O)O[C@H]4[C@@H](F)[C@H](n5cnc6c(=O)[nH]cnc65)O[C@@H]4COP(=O)(O)O[C@@H]2C3)c(=O)[nH]1` [Example 294, 2-amino-9-[(5S,7R,8R,12aR,14R,15R,15aR)-15-fluoro-2,10-dihydroxy-2,10-dioxido-14-(6-oxo-1,6-dihydro-9H-purin-9-yl)octahydro-12H-5,8-methanofuro[3,2-l] [1,3,6,9,11,2,10]pentaoxadiphosphacyclo-tetradecin-7-yl]-1,9-dihydro-6H-purin-6-one], the EC50 at full-length HAQ STING came to 6.6 nM. Besides, the “% Effect at 30 μM relative to 2′3′-cGAMP” value in test [1] (setting [2]) worked out at 84%.

Take `Nc1nc2c(ncn2[C@@H]2O[C@@H]3COP(=O)(O)O[C@H]4[C@H](F)[C@H](n5cnc6c(=O)[nH]cnc65)O[C@@H]4COP(=O)(O)O[C@@H]2[C@@H]3O)c(=O)[nH]1` [Example 295, 2-amino-9-[(5R,7R,8R,12aR,14R,15S,15aR,16R)-15-fluoro-2,10,16-trihydroxy-2,10-dioxido-14-(6-oxo-1,6-dihydro-9H-purin-9-yl)octahydro-12H-5,8-methanofuro[3,2-l] [1,3,6,9,11,2,10]pentaoxadiphosphacyclo-tetradecin-7-yl]-1,9-dihydro-6H-purin-6-one]: the EC50 at full-length HAQ STING was 29.6 nM. In test [1] (setting [2]), the “% Effect at 30 μM relative to 2′3′-cGAMP” value is listed as 70%.

For `Nc1nc2c(ncn2[C@@H]2O[C@@H]3COP(=O)(O)O[C@H]4[C@@H](O)[C@H](n5cnc6c(O)ncnc65)O[C@@H]4COP(=O)(O)O[C@@H]2[C@@H]3F)c(=O)[nH]1` [Example 300, 2-amino-9-[(5R,7R,8S,12aR,14R,15R,15aS,16R)-16-fluoro-2,10,15-trihydroxy-14-(6-hydroxy-9H-purin-9-yl)-2,10-dioxidooctahydro-12H-5,8-methanofuro[3,2-l] [1,3,6,9,11,2,10]pentaoxadiphosphacyclo-tetradecin-7-yl]-1,9-dihydro-6H-purin-6-one], at full-length HAQ STING, the EC50 is 5.1 nM. Further, in test [1] (setting [2]), the “% Effect at 30 μM relative to 2′3′-cGAMP” value is reported as 86%.

As for `CO[C@H]1[C@H]2OP(=O)(O)OC[C@H]3O[C@@H](n4cnc5c(O)ncnc54)[C@H](O)[C@@H]3OP(=O)(O)OC[C@H]1O[C@H]2n1cnc2c(=O)[nH]c(N)nc21` [Example 301, 2-amino-9-[(5R,7R,8R,12aR,14R,15R,15aS,16R)-2,10,15-trihydroxy-14-(6-hydroxy-9H-purin-9-yl)-16-methoxy-2,10-dioxidooctahydro-12H-5,8-methanofuro[3,2-l][1,3,6,9,11,2,10]pentaoxadiphosphacyclotetradecin-7-yl]-1,9-dihydro-6H-purin-6-one], on full-length HAQ STING, the EC50 was 4.8 nM. Besides, the “% Effect at 30 μM relative to 2′3′-cGAMP” value in test [1] (setting [2]) was 107%.

In the case of `[N-]=[N+]=N[C@H]1[C@H]2OP(=O)(O)OC[C@H]3O[C@@H](n4cnc5c(O)ncnc54)[C@H](O)[C@@H]3OP(=O)(O)OC[C@H]1O[C@H]2n1cnc2c(=O)[nH]c(N)nc21` [Example 302, 2-amino-9-[(5S,7R,8R,12aR,14R,15R,15aS,16R)-16-azido-2,10,15-trihydroxy-14-(6-hydroxy-9H-purin-9-yl)-2,10-dioxidooctahydro-12H-5,8-methanofuro[3,2-l] [1,3,6,9,11,2,10]pentaoxadiphosphacyclo-tetradecin-7-yl]-1,9-dihydro-6H-purin-6-one], at full-length HAQ STING, the EC50 was 2.3 nM. Also, the “% Effect at 30 μM relative to 2′3′-cGAMP” value in test [1] (setting [2]) worked out at 103%.

With `Nc1nc2c(ncn2[C@@H]2O[C@@H]3COP(O)(=S)O[C@H]4[C@H](F)[C@H](n5cnc6c(=O)[nH]cnc65)O[C@@H]4COP(=O)(O)O[C@@H]2[C@@H]3F)c(=O)[nH]1` (stereo partly drawn) [Example 303, 2-amino-9-[(5R,7R,8S,12aR,14R,15S,15aR,16R)-15,16-difluoro-2,10-dihydroxy-10-oxido-14-(6-oxo-1,6-dihydro-9H-purin-9-yl)-2-sulfidooctahydro-12H-5,8-methanofuro[3,2-l][1,3,6,9,11,2,10]pentaoxadiphosphacyclotetradecin-7-yl]-1,9-dihydro-6H-purin-6-one], on full-length HAQ STING, the EC50 was below 1 nM. For the same compound, the “% Effect at 30 μM relative to 2′3′-cGAMP” value in test [1] is reported as 106%.

As to `Nc1nc2c(ncn2[C@@H]2O[C@@H]3COP(=O)(O)O[C@H]4[C@H](F)[C@H](n5cnc6c(=O)[nH]cnc65)O[C@@H]4COP(=O)(O)O[C@@H]2C3)c(=O)[nH]1` [Example 312, 2-amino-9-[(5S,7R,8R,12aR,14R,15S,15aR)-15-fluoro-2,10-dihydroxy-2,10-dioxido-14-(6-oxo-1,6-dihydro-9H-purin-9-yl)octahydro-12H-5,8-methanofuro[3,2-l] [1,3,6,9,11,2,10]pentaoxadiphosphacyclo-tetradecin-7-yl]-1,9-dihydro-6H-purin-6-one], the EC50 at full-length HAQ STING turned out to be 122 nM. Moreover, the “% Effect at 30 μM relative to 2′3′-cGAMP” value in test [1] (setting [2]) is listed as 90%.

For `Nc1nc2c(ncn2[C@@H]2O[C@@H]3COP(=O)(O)O[C@H]4C[C@H](n5cnc6c(=O)[nH]cnc65)O[C@@H]4COP(=O)(O)O[C@@H]2C3)c(=O)[nH]1` [Example 313, 2-amino-9-[(5S,7R,8R,12aR,14R,15aS)-2,10-dihydroxy-2,10-dioxido-14-(6-oxo-1,6-dihydro-9H-purin-9-yl)octahydro-12H-5,8-methanofuro[3,2-l] [1,3,6,9,11,2,10]pentaoxadiphosphacyclo-tetradecin-7-yl]-1,9-dihydro-6H-purin-6-one], the EC50 on full-length HAQ STING is 211 nM. In addition, in test [1] (setting [2]), the “% Effect at 30 μM relative to 2′3′-cGAMP” value amounted to 117%.

Regarding `Nc1nc2c(ncn2[C@@H]2O[C@@H]3COP(=O)(O)O[C@H]4[C@@H](F)[C@H](n5cnc6c(=O)[nH]cnc65)O[C@@H]4COP(=O)(O)O[C@@H]2[C@@H]3F)c(=O)[nH]1` [Example 314, 2-amino-9-[(5R,7R,8S,12aR,14R,15R,15aR,16R)-15,16-difluoro-2,10-dihydroxy-2,10-dioxido-14-(6-oxo-1,6-dihydro-9H-purin-9-yl)octahydro-12H-5,8-methanofuro [3,2-l][1,3,6,9,11,2,10]pentaoxadiphosphacyclotetradecin-7-yl]-1,9-dihydro-6H-purin-6-one], on full-length HAQ STING, the EC50 is below 1 nM. In addition, the “% Effect at 30 μM relative to 2′3′-cGAMP” value in test [1] (setting [2]) amounted to 143%.

For the compound `Nc1nc2c(ncn2[C@@H]2O[C@@H]3COP(=O)(O)O[C@H]4[C@H](F)[C@H](n5cnc6c(=O)[nH]cnc65)O[C@@H]4COP(=O)(O)O[C@@H]2[C@@H]3F)c(=O)[nH]1` [Example 315, 2-amino-9-[(5R,7R,8S,12aR,14R,15S,15aR,16R)-15,16-difluoro-2,10-dihydroxy-2,10-dioxido-14-(6-oxo-1,6-dihydro-9H-purin-9-yl)octahydro-12H-5,8-methanofuro [3,2-l][1,3,6,9,11,2,10]pentaoxadiphosphacyclotetradecin-7-yl]-1,9-dihydro-6H-purin-6-one], the EC50 at full-length HAQ STING stood at 49.9 nM. The “% Effect at 30 μM relative to 2′3′-cGAMP” value in test [1] (setting [2]) stood at 92%.

Turning to `Nc1nc2c(ncn2[C@@H]2O[C@@]34CO[C@H]3[C@H]2OP(=O)(O)OC[C@H]2O[C@@H](n3cnc5c(=O)[nH]cnc53)[C@H](O)[C@@H]2OP(=O)(O)OC4)c(=O)[nH]1` [Example 316, 2-amino-9-[(2aR,6aS,7R,8R,9aR,14R,14aS,15R)-5,7,12-trihydroxy-5,12-dioxido-8-(6-oxo-1,6-dihydro-9H-purin-9-yl)hexahydro-6aH,2a,14-(epoxymethano)furo [3,2-d]oxeto[2,3-k][1,3,7,9,2,8]tetraoxadiphosphacyclotridecin-15(2H,3H)-yl]-1,9-dihydro-6H-purin-6-one], the EC50 on full-length HAQ STING turned out to be 2320 nM. Further, in test [1] (setting [2]), the “% Effect at 30 μM relative to 2′3′-cGAMP” value is given as 12%.

As for `Nc1nc2c(ncn2[C@@H]2S[C@@H]3COP(=O)(O)O[C@H]4[C@@H](O)[C@H](n5cnc6c(=O)[nH]cnc65)O[C@@H]4COP(=O)(O)O[C@@H]2[C@@H]3O)c(=O)[nH]1` [Example 319, 2-amino-9-[(5R,7R,8R,12aR,14R,15R,15aS,16S)-2,10,15,16-tetrahydroxy-2,10-dioxido-14-(6-oxo-1,6-dihydro-9H-purin-9-yl)octahydro-12H-5,8-methanofuro[3,2-l][1,3,6,9,11,6,2,10]tetraoxathiadiphosphacyclotetradecin-7-yl]-1,9-dihydro-6H-purin-6-one], the EC50 on full-length HAQ STING came to 7.3 nM. Moreover, the “% Effect at 30 μM relative to 2′3′-cGAMP” value in test [1] (setting [2]) is 143%.

Regarding `Nc1nc2c(ncn2[C@@H]2O[C@@H]3COP(=O)(S)O[C@H]4[C@H](F)[C@H](n5nnc6c(=O)[nH]cnc65)O[C@@H]4COP(=O)(S)O[C@@H]2C3)c(=O)[nH]1` (stereo partly drawn) [Example 320, 3-[(5S,7R,8R,12aR,14R,15S,15aR)-7-(2-amino-6-oxo-1,6-dihydro-9H-purin-9-yl)-15-fluoro-2,10-dioxido-2,10-disulfanyloctahydro-12H-5,8-methanofuro[3,2-l][1,3,6,9,11,2,10]pentaoxadiphosphacyclotetradecin-14-yl]-3,6-dihydro-7H-[1,2,3]triazolo[4,5-d]pyrimidin-7-one], the EC50 at full-length HAQ STING is 6.3 nM. Further, the “% Effect at 30 μM relative to 2′3′-cGAMP” value in test [1] (setting [2]) is 115%.

Regarding `Nc1nc2c(ncn2[C@@H]2O[C@@H]3COP(=O)(O)O[C@H]4[C@H](Cl)[C@H](n5cnc6c(=O)[nH]cnc65)O[C@@H]4COP(=O)(O)O[C@@H]2[C@@H]3O)c(=O)[nH]1` [Example 322, 2-amino-9-[(5R,7R,8R,12aR,14R, 15S,15aR,16R)-15-chloro-2,10,16-trihydroxy-2,10-dioxido-14-(6-oxo-1,6-dihydro-9H-purin-9-yl)octahydro-12H-5,8-methanofuro[3,2-l][1,3,6,9,11,2,10]pentaoxadiphosphacyclotetradecin-7-yl]-1,9-dihydro-6H-purin-6-one], at full-length HAQ STING, the EC50 was found to be 68.8 nM. Besides, the “% Effect at 30 μM relative to 2′3′-cGAMP” value in test [1] (setting [2]) is 41%.
